Measured values taken from PubChem BioAssay AID248 (DTP/NCI, 2004).
Several values for one entry are separate records, joined by “and”; a condition that tells them apart may be missing. Identical values can stand only once. Inconclusive results and toxic doses are left out.

Test system: L1210 leukemia ip in BDF1 mice, survival T/C
Experiment: NCI In Vivo Anticancer Drug Screen. Data for tumor model L1210 Leukemia (intraperitoneal) in B6D2F1 (BDF1) mice
Settings: endpoint: mean survival time, higher = longer survival
How it was run: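 Ratio derived from survival: compound-dosed mice over vehicle-dosed mice, all bearing a transplantable tumor.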

[1] = dose: 100.0 mg/kg/injection, schedule: Q04DX003 (ip), vehicle: saline with Tween-80
[2] = dose: 200.0 mg/kg/injection, schedule: Q04DX003 (ip), vehicle: saline with Tween-80
[3] = dose: 100.0 mg/kg/injection, schedule: Q01DX001 (ip), vehicle: saline
[4] = dose: 200.0 mg/kg/injection, schedule: Q01DX001 (ip), vehicle: saline
[5] = dose: 400.0 mg/kg/injection, schedule: Q01DX001 (ip), vehicle: saline
[6] = dose: 100.0 mg/kg/injection, schedule: Q01DX009 (ip), vehicle: Klucel (hydroxypropylcellulose) (HPC)
[7] = dose: 200.0 mg/kg/injection, schedule: Q01DX009 (ip), vehicle: Klucel (hydroxypropylcellulose) (HPC)
[8] = dose: 50.0 mg/kg/injection, schedule: Q01DX001 (ip), vehicle: saline
[9] = dose: 100.0 mg/kg/injection, schedule: Q01DX001 (ip), vehicle: carboxymethylcellulose (CMC)
[10] = dose: 200.0 mg/kg/injection, schedule: Q01DX001 (ip), vehicle: carboxymethylcellulose (CMC)
[11] = dose: 100.0 mg/kg/injection, schedule: Q04DX003 (ip), vehicle: Klucel (hydroxypropylcellulose) (HPC)
[12] = dose: 200.0 mg/kg/injection, schedule: Q04DX003 (ip), vehicle: Klucel (hydroxypropylcellulose) (HPC)
[13] = dose: 400.0 mg/kg/injection, schedule: Q04DX003 (ip), vehicle: Klucel (hydroxypropylcellulose) (HPC)

Compound: ClC(Cl)=C1SCCCS1
- T/C (dose: 100.0 mg/kg/injection, schedule: Q01DX001 (ip), vehicle: saline with Tween-80): 96 % of control
- T/C (dose: 200.0 mg/kg/injection, schedule: Q01DX001 (ip), vehicle: saline with Tween-80): 108 % of control

Compound: C1=CC2C3C=CC(C3)C2C1 (configuration not stated)
- T/C (dose: 50.0 mg/kg/injection, schedule: Q04DX003 (ip), vehicle: saline with Tween-80): 95 % of control
- T/C [1]: 95 % of control
- T/C [2]: 93 % of control

Compound: CC/C=C(CC)/C(=C/CC)CC
- T/C [3]: 97 % of control
- T/C (dose: 100.0 mg/kg/injection, schedule: Q01DX009 (ip), vehicle: saline): 98 % of control
- T/C [4]: 105 % of control
- T/C (dose: 200.0 mg/kg/injection, schedule: Q01DX009 (ip), vehicle: saline): 96 % of control
- T/C [5]: 102 % of control

Compound: O=C1CC2(CCNCC2)C(=O)N1N1CCCCCC1
- T/C [3]: 110 % of control
- T/C [4]: 112 % of control
- T/C [5]: 100 % of control

Compound: O=C1c2ccccc2C(=O)c2c(O)c3c(c(O)c21)CC=CC3
- T/C (dose: 0.25 mg/kg/injection, schedule: Q04DX003 (ip), vehicle: saline with Tween-80): 94 % of control
- T/C (dose: 0.5 mg/kg/injection, schedule: Q04DX003 (ip), vehicle: saline with Tween-80): 104 % of control
- T/C (dose: 1.0 mg/kg/injection, schedule: Q04DX003 (ip), vehicle: saline with Tween-80): 100 % of control
- T/C (dose: 2.0 mg/kg/injection, schedule: Q04DX003 (ip), vehicle: saline with Tween-80): 104 % of control
- T/C (dose: 4.0 mg/kg/injection, schedule: Q04DX003 (ip), vehicle: saline with Tween-80): 102 % of control
- T/C (dose: 6.0 mg/kg/injection, schedule: Q04DX003 (ip), vehicle: saline with Tween-80): 102 % of control
- T/C (dose: 8.0 mg/kg/injection, schedule: Q04DX003 (ip), vehicle: saline with Tween-80): 93 % of control
- T/C (dose: 12.0 mg/kg/injection, schedule: Q04DX003 (ip), vehicle: saline with Tween-80): 103 % of control
- T/C (dose: 16.0 mg/kg/injection, schedule: Q04DX003 (ip), vehicle: saline with Tween-80): 93 % of control
- T/C (dose: 24.0 mg/kg/injection, schedule: Q04DX003 (ip), vehicle: saline with Tween-80): 102 % of control
- T/C (dose: 32.0 mg/kg/injection, schedule: Q04DX003 (ip), vehicle: saline with Tween-80): 100 % of control
- T/C (dose: 48.0 mg/kg/injection, schedule: Q04DX003 (ip), vehicle: saline with Tween-80): 103 % of control
- T/C (dose: 64.0 mg/kg/injection, schedule: Q04DX003 (ip), vehicle: saline with Tween-80): 96 % of control
- T/C (dose: 128.0 mg/kg/injection, schedule: Q04DX003 (ip), vehicle: saline with Tween-80): 105 % of control

Compound: Cc1cc(OC(=O)Nc2cccc(C(F)(F)F)c2)c(C)cc1Cl
- T/C [6]: 106 % of control
- T/C [7]: 118 % of control
- T/C (dose: 400.0 mg/kg/injection, schedule: Q01DX009 (ip), vehicle: Klucel (hydroxypropylcellulose) (HPC)): 102 % of control

Compound: C1OC1CN1CCC(C2CCN(CC3CO3)CC2)CC1 (configuration not stated)
- T/C (dose: 0.61 mg/kg/injection, schedule: Q01DX009 (ip), vehicle: saline): 114 % of control
- T/C (dose: 2.1 mg/kg/injection, schedule: Q01DX009 (ip), vehicle: saline): 156 % of control
- T/C (dose: 2.9 mg/kg/injection, schedule: Q01DX001 (ip), vehicle: saline): 121 % of control
- T/C (dose: 3.5 mg/kg/injection, schedule: Q01DX009 (ip), vehicle: saline): 120 % of control
- T/C (dose: 4.3 mg/kg/injection, schedule: Q01DX001 (ip), vehicle: saline): 115 % of control
- T/C (dose: 4.4 mg/kg/injection, schedule: Q01DX001 (ip), vehicle: saline): 159 % of control
- T/C (dose: 6.6 mg/kg/injection, schedule: Q01DX001 (ip), vehicle: saline): 122 % of control
- T/C (dose: 15.0 mg/kg/injection, schedule: Q01DX001 (ip), vehicle: saline): 160 % of control
- T/C (dose: 15.0 mg/kg/injection, schedule: Q01DX009 (ip), vehicle: saline): 150 % of control and 152 % of control
- T/C [8]: 164 % of control
- T/C (dose: 60.0 mg/kg/injection, schedule: Q01DX001 (ip), vehicle: saline): 156 % of control
- T/C (dose: 60.0 mg/kg/injection, schedule: Q01DX009 (ip), vehicle: saline): 91 % of control

Compound: CCCCC(=O)N/N=C/c1ccc(Cl)c(Cl)c1
- T/C [9]: 88 % of control
- T/C [10]: 110 % of control
- T/C (dose: 400.0 mg/kg/injection, schedule: Q01DX001 (ip), vehicle: carboxymethylcellulose (CMC)): 91 % of control

Compound: Oc1c(Br)cc(Br)cc1C=Nc1ccc(Br)cc1.Oc1c(Br)cc(Br)cc1C=Nc1ccc(Br)cc1.[Co]
- T/C [1]: 95 % of control
- T/C [2]: 95 % of control
- T/C (dose: 400.0 mg/kg/injection, schedule: Q04DX003 (ip), vehicle: saline with Tween-80): 95 % of control

Compound: CN(C)Cc1cc(Cl)ccc1O
- T/C (dose: 100.0 mg/kg/injection, schedule: Q04DX002 (ip), vehicle: Klucel (hydroxypropylcellulose) (HPC)): 100 % of control

Compound: CN(C)c1ccc(C=O)cc1[N+](=O)[O-]
- T/C (dose: 50.0 mg/kg/injection, schedule: Q01DX009 (ip), vehicle: Klucel (hydroxypropylcellulose) (HPC)): 94 % of control
- T/C [6]: 97 % of control
- T/C [11]: 97 % of control
- T/C [7]: 100 % of control
- T/C [12]: 92 % of control
- T/C [13]: 100 % of control

Compound: O=C(c1ccccc1Br)C(Br)C(Br)c1ccccc1 (configuration not stated)
- T/C (dose: 100.0 mg/kg/injection, schedule: Q01DX009 (ip), vehicle: saline with Tween-80): 98 % of control
- T/C (dose: 200.0 mg/kg/injection, schedule: Q01DX009 (ip), vehicle: saline with Tween-80): 93 % of control
- T/C (dose: 400.0 mg/kg/injection, schedule: Q01DX009 (ip), vehicle: saline with Tween-80): 91 % of control

Compound: NC(CSCc1ccccc1)C(=O)O (configuration not stated)
- T/C (dose: 7.0 mg/kg/injection, schedule: Q01DX015 (ip), vehicle: saline): 97 % of control
- T/C (dose: 15.0 mg/kg/injection, schedule: Q01DX015 (ip), vehicle: saline): 97 % of control
- T/C (dose: 29.0 mg/kg/injection, schedule: Q01DX015 (ip), vehicle: saline): 101 % of control
- T/C (dose: 50.0 mg/kg/injection, schedule: Q01DX001 (ip), vehicle: carboxymethylcellulose (CMC)): 89 % of control
- T/C (dose: 58.0 mg/kg/injection, schedule: Q01DX015 (ip), vehicle: saline): 97 % of control
- T/C [9]: 101 % of control
- T/C [11]: 100 % of control
- T/C (dose: 117.0 mg/kg/injection, schedule: Q01DX015 (ip), vehicle: saline): 97 % of control
- T/C [10]: 89 % of control
- T/C [12]: 94 % of control
- T/C (dose: 233.0 mg/kg/injection, schedule: Q01DX015 (ip), vehicle: saline): 95 % of control
- T/C [13]: 96 % of control

Compound: CC(=O)c1ccc(NCC2N=C(N)N=C(N)N2c2ccccc2)cc1 (configuration not stated)
- T/C [6]: 97 % of control
- T/C [11]: 98 % of control
- T/C [7]: 96 % of control
- T/C [12]: 90 % of control

Compound: CCOP(=O)(OCC)C1=C(P(=O)(OCC)OCC)C(F)(F)C(F)(F)C1(F)F
- T/C (dose: 9.5 mg/kg/injection, schedule: Q01DX001 (ip), vehicle: other): 100 % of control
- T/C (dose: 19.0 mg/kg/injection, schedule: Q01DX001 (ip), vehicle: other): 100 % of control
- T/C (dose: 38.0 mg/kg/injection, schedule: Q01DX001 (ip), vehicle: other): 97 % of control

Compound: Ic1ccc(/C=N/Nc2nnc(N/N=C/c3ccc(I)cc3)c3ccccc23)cc1
- T/C [8]: 98 % of control
- T/C [3]: 96 % of control
- T/C [4]: 98 % of control
- T/C [5]: 98 % of control

Compound: CC(=NC1CCCCC1)Nc1ccc(NC(=O)c2ccc(C(=O)Nc3ccc(NC(C)=NC4CCCCC4)cc3)cc2)cc1
- T/C (dose: 15.0 mg/kg/injection, schedule: Q01DX Z (ip), vehicle: carboxymethylcellulose (CMC)): 92 % of control
- T/C (dose: 30.0 mg/kg/injection, schedule: Q01DX Z (ip), vehicle: carboxymethylcellulose (CMC)): 93 % of control
- T/C (dose: 60.0 mg/kg/injection, schedule: Q01DX Z (ip), vehicle: carboxymethylcellulose (CMC)): 96 % of control

Compound: CC(=O)c1ccc(CC2CCC2)cc1
- T/C (dose: 75.0 mg/kg/injection, schedule: Q01DX009 (ip), vehicle: Klucel (hydroxypropylcellulose) (HPC)): 97 % of control
- T/C (dose: 150.0 mg/kg/injection, schedule: Q01DX009 (ip), vehicle: Klucel (hydroxypropylcellulose) (HPC)): 112 % of control
- T/C (dose: 300.0 mg/kg/injection, schedule: Q01DX009 (ip), vehicle: Klucel (hydroxypropylcellulose) (HPC)): 110 % of control
